The values that follow come from PubChem BioAssay AID1259407 (Chemical Carcinogenesis Research Information System (CCRIS), 2018).

The structures appear in SMILES notation. The source made the active and inactive calls. The rule behind the calls is not given here.

This data set deals with CCRIS mutagenicity, Ames/micronucleus/aberration tests. The data set is described as follows: CCRIS mutagenicity studies.
[1] abbreviates: Test System: AMES SALMONELLA TYPHIMURIUM, Strain/Indicator: TA100, Metabolic Activation: NONE, Method: PREINCUBATION
[2] abbreviates: Test System: AMES SALMONELLA TYPHIMURIUM, Strain/Indicator: TA98, Metabolic Activation: NONE, Method: STANDARD PLATE.
Setting [3] is: Test System: AMES SALMONELLA TYPHIMURIUM, Strain/Indicator: TA98, Metabolic Activation: RAT, LIVER, S-9, AROCLOR 1254, Method: STANDARD PLATE.
The mark [4] stands for this setting: Test System: AMES SALMONELLA TYPHIMURIUM, Strain/Indicator: TA100, Metabolic Activation: NONE, Method: STANDARD PLATE.
[5] abbreviates: Test System: AMES SALMONELLA TYPHIMURIUM, Strain/Indicator: TA100, Metabolic Activation: RAT, LIVER, S-9, AROCLOR 1254, Method: STANDARD PLATE.
[6] abbreviates: Test System: AMES SALMONELLA TYPHIMURIUM, Strain/Indicator: TA1535, Metabolic Activation: NONE, Method: STANDARD PLATE.
Setting [7] is: Test System: AMES SALMONELLA TYPHIMURIUM, Strain/Indicator: TA1535, Metabolic Activation: RAT, LIVER, S-9, AROCLOR 1254, Method: STANDARD PLATE.
The mark [8] stands for this setting: Test System: AMES SALMONELLA TYPHIMURIUM, Strain/Indicator: TA1537, Metabolic Activation: NONE, Method: STANDARD PLATE.
Where [9] appears, read: Test System: AMES SALMONELLA TYPHIMURIUM, Strain/Indicator: TA1537, Metabolic Activation: RAT, LIVER, S-9, AROCLOR 1254, Method: STANDARD PLATE.
The mark [10] stands for this setting: Test System: AMES SALMONELLA TYPHIMURIUM, Strain/Indicator: TA1538, Metabolic Activation: NONE, Method: STANDARD PLATE.
Setting [11] is: Test System: AMES SALMONELLA TYPHIMURIUM, Strain/Indicator: TA1538, Metabolic Activation: RAT, LIVER, S-9, AROCLOR 1254, Method: STANDARD PLATE.

Consider `CCN(CC)C(=S)SSC(=S)N(CC)CC`, for which the mutagenic call by setting is: (Test System: AMES SALMONELLA TYPHIMURIUM, Strain/Indicator: TA98, Metabolic Activation: HAMSTER, LIVER, S-9, AROCLOR 1254 (10%), Method: PREINCUBATION) “inactive; negative”; (Test System: AMES SALMONELLA TYPHIMURIUM, Strain/Indicator: TA98, Metabolic Activation: NONE, Method: PREINCUBATION) “inactive; negative”; (Test System: AMES SALMONELLA TYPHIMURIUM, Strain/Indicator: TA98, Metabolic Activation: RAT, LIVER, S-9, AROCLOR 1254 (10%), Method: PREINCUBATION) “inactive; negative”; (Test System: AMES SALMONELLA TYPHIMURIUM, Strain/Indicator: TA100, Metabolic Activation: HAMSTER, LIVER, S-9, AROCLOR 1254 (10%), Method: PREINCUBATION) “inactive; negative”; under setting [1], “inactive; negative”; (Test System: AMES SALMONELLA TYPHIMURIUM, Strain/Indicator: TA100, Metabolic Activation: RAT, LIVER, S-9, AROCLOR 1254 (10%), Method: PREINCUBATION) “inactive; negative”. Moreover, the mutagenic call runs as follows: (Test System: AMES SALMONELLA TYPHIMURIUM, Strain/Indicator: TA1535, Metabolic Activation: HAMSTER, LIVER, S-9, AROCLOR 1254 (10%), Method: PREINCUBATION) “inactive; negative”; (Test System: AMES SALMONELLA TYPHIMURIUM, Strain/Indicator: TA1535, Metabolic Activation: NONE, Method: PREINCUBATION) “inactive; negative”; (Test System: AMES SALMONELLA TYPHIMURIUM, Strain/Indicator: TA1535, Metabolic Activation: RAT, LIVER, S-9, AROCLOR 1254 (10%), Method: PREINCUBATION) “inactive; negative”; (Test System: AMES SALMONELLA TYPHIMURIUM, Strain/Indicator: TA1537, Metabolic Activation: HAMSTER, LIVER, S-9, AROCLOR 1254 (10%), Method: PREINCUBATION) “inactive; negative”; (Test System: AMES SALMONELLA TYPHIMURIUM, Strain/Indicator: TA1537, Metabolic Activation: NONE, Method: PREINCUBATION) “inactive; negative”; (Test System: AMES SALMONELLA TYPHIMURIUM, Strain/Indicator: TA1537, Metabolic Activation: RAT, LIVER, S-9, AROCLOR 1254 (10%), Method: PREINCUBATION) “inactive; negative”. In addition, the mutagenic call (Test System: MOUSE LYMPHOMA, Strain/Indicator: L5178Y (TK+/TK-), Metabolic Activation: NONE, Method: SUSPENSION/PLATE) was “active; positive”.
Regarding `C=CC(O)CO` (stereo not drawn), the mutagenic call is “active; positive (especially at 5.5-6 wk after last exposure)” (Test System: Mouse splenic T lymphocytes in vivo, Strain/Indicator: B6C3F1 females (HPRT)/6-Thioguanine, Metabolic Activation: None, Method: Inhalation at 0, 6, 18, 36 ppm 6 hr/day for 4 wks (sacrifice 2-8 wks post exposure)); “active; positive (especially at 5.5-6 wk after last exposure)” (Test System: Mouse splenic T lymphocytes in vivo, Strain/Indicator: B6C3F1 males (HPRT)/6-Thioguanine, Metabolic Activation: None, Method: Inhalation at 0, 6, 18, 36 ppm 6 hr/day for 4 wks (sacrifice 2-8 wks post exposure)); “active; positive (at 5-6 wks)” (Test System: Rat splenic T lymphocytes in vivo, Strain/Indicator: F344 females (HPRT)/6-Thioguanine, Metabolic Activation: None, Method: Inhalation at 0, 36 ppm 6 hr/day for 4 wks (sacrifice 2-8 wks post exposure)).
Consider `C=C(C)C(=O)OCCCCCCOC(=O)C(=C)C`, for which the mutagenic call was “inactive; negative” under setting [2]; “inactive; negative” under setting [3]; “inactive; negative” (Test System: AMES SALMONELLA TYPHIMURIUM, Strain/Indicator: TA98, Metabolic Activation: RAT, LIVER, S-9, SODIUM PHENOBARBITAL, Method: STANDARD PLATE); “inactive; negative” under setting [4]; “inactive; negative” under setting [5]; “inactive; negative” (Test System: AMES SALMONELLA TYPHIMURIUM, Strain/Indicator: TA100, Metabolic Activation: RAT, LIVER, S-9, SODIUM PHENOBARBITAL, Method: STANDARD PLATE). Further, the mutagenic call is, setting by setting: under setting [6], “inactive; negative”; under setting [7], “inactive; negative”; (Test System: AMES SALMONELLA TYPHIMURIUM, Strain/Indicator: TA1535, Metabolic Activation: RAT, LIVER, S-9, SODIUM PHENOBARBITAL, Method: STANDARD PLATE) “inactive; negative”; under setting [8], “inactive; negative”; under setting [9], “inactive; negative”; (Test System: AMES SALMONELLA TYPHIMURIUM, Strain/Indicator: TA1537, Metabolic Activation: RAT, LIVER, S-9, SODIUM PHENOBARBITAL, Method: STANDARD PLATE) “inactive; negative”. Moreover, the mutagenic call is “inactive; negative” under setting [10]; “inactive; negative” under setting [11]; “inactive; negative” (Test System: AMES SALMONELLA TYPHIMURIUM, Strain/Indicator: TA1538, Metabolic Activation: RAT, LIVER, S-9, SODIUM PHENOBARBITAL, Method: STANDARD PLATE).
Regarding `OCCNc1ccc(N=Nc2ccc(NCCO)cc2)cc1`, the mutagenic call is, setting by setting: (Test System: AMES SALMONELLA TYPHIMURIUM, Strain/Indicator: TA98, Metabolic Activation: HAMSTER, LIVER, S-9, AROCLOR 1254, Method: STANDARD PLATE) “active; positive”; under setting [2], “inactive; negative”; (Test System: AMES SALMONELLA TYPHIMURIUM, Strain/Indicator: TA98, Metabolic Activation: RAT, LIVER, S-9, AROCLOR 1254, Method: PREINCUBATION) “active; positive”; under setting [3], “active; positive”; under setting [4], “inactive; negative”; under setting [5], “inactive; negative”. Further, the mutagenic call reads like this: under setting [6], “inactive; negative”; under setting [7], “inactive; negative”; under setting [8], “inactive; negative”; under setting [9], “inactive; negative”; under setting [10], “inactive; negative”; under setting [11], “active; positive”.
For `Cc1cc(N)c(C)c([N+](=O)[O-])c1N`, the mutagenic call runs as follows: under setting [2], “inactive; negative”; under setting [3], “active; positive”; under setting [4], “inactive; negative”; under setting [5], “inactive; negative”; under setting [6], “inactive; negative”; under setting [7], “inactive; negative”. Further, the mutagenic call under setting [8] is “inactive; negative”, the mutagenic call under setting [9] is “inactive; negative”, the mutagenic call under setting [10] was “inactive; negative” and the mutagenic call under setting [11] was “active; positive”.
In the case of `COc1cc2c(c3oc(=O)c4c(c13)CCC4=O)[C@@H]1CCO[C@@H]1O2`, the mutagenic call under setting [3] was “active; positive”; the mutagenic call under setting [1] was “active; positive”; the mutagenic call under setting [5] is “active; positive”; the mutagenic call (Test System: AMES SALMONELLA TYPHIMURIUM, Strain/Indicator: TA100, Metabolic Activation: RAT, LIVER, S-9, PHENOBARBITAL, Method: PREINCUBATION) is “active; positive”; the mutagenic call (Test System: CHINESE HAMSTER V-79, Strain/Indicator: V-79/6-THIOGUANINE, Metabolic Activation: RAT, LIVER, S-9, PHENOBARBITAL, Method: STANDARD PLATE) is “active; positive”.
